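Where inhibition never reached the appropriate level, the endpoint shown equals the highest concentration tested. Otherwise, values were interpolated linearly from a five-concentration, 48-hour dose response in 96-well plates. The concentration for full growth arrest is given as TGI.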 Where a SMILES comes first, the peptide text is derived from it. The star is where a group is joined. Cbz = O=C(OCc1ccccc1)*; Boc = CC(C)(C)OC(=O)*; OBn = c1ccc(CO*)cc1
Assays:
Assay in all cases: inhibition of tumour cell growth, NCI panel, 48 h
HT29 colon = test system: HT29 colon
ACHN renal = test system: ACHN renal
MOLT-4 leukemia = test system: MOLT-4 leukemia
HL-60(TB) leukemia = test system: HL-60(TB) leukemia
COLO 205 colon = test system: COLO 205 colon
CAKI-1 renal = test system: CAKI-1 renal
K-562 leukemia = test system: K-562 leukemia
MCF7 breast = test system: MCF7 breast
SR leukemia = test system: SR leukemia
RXF 393 renal = test system: RXF 393 renal
CCRF-CEM leukemia = test system: CCRF-CEM leukemia
TK-10 renal = test system: TK-10 renal
MDA-MB-231 breast = test system: MDA-MB-231 breast
HCC-2998 colon = test system: HCC-2998 colon
SW-620 colon = test system: SW-620 colon
SK-MEL-2 melanoma = test system: SK-MEL-2 melanoma
OVCAR-4 ovarian = test system: OVCAR-4 ovarian
SF-268 CNS = test system: SF-268 CNS

| SMILES | TGI (HT29 colon) [µM] | TGI (ACHN renal) [µM] | TGI (MOLT-4 leukemia) [µM] | TGI (HL-60(TB) leukemia) [µM] | TGI (COLO 205 colon) [µM] | TGI (CAKI-1 renal) [µM] | TGI (K-562 leukemia) [µM] | TGI (MCF7 breast) [µM] | TGI (SR leukemia) [µM] | TGI (RXF 393 renal) [µM] | TGI (CCRF-CEM leukemia) [µM] | TGI (TK-10 renal) [µM] | TGI (MDA-MB-231 breast) [µM] | TGI (HCC-2998 colon) [µM] | TGI (SW-620 colon) [µM] | TGI (SK-MEL-2 melanoma) [µM] | TGI (OVCAR-4 ovarian) [µM] | TGI (SF-268 CNS) [µM] |
| --- | --- | --- | --- | --- | --- | --- | --- | --- | --- | --- | --- | --- | --- | --- | --- | --- | --- | --- |
| OCC1OC(NC(=S)NCSCCC(F)(F)C(F)(F)C(F)(F)C(F)(F)C(F)(F)C(F)(F)F)C(O)C(O)C1O (stereo not given) | > 100 | > 100 | > 100 | > 100 | > 100 | > 100 | 56.4 | > 100 | > 100 | > 100 | 91.3 | > 100 | > 100 | > 100 | > 100 | > 100 | > 100 | > 100 |
| Brc1ccc(C2(N3CCCCC3)CCCCC2)s1 | > 100 | > 100 | 34.2 | 41.8 |  | > 100 | 52.5 | > 100 | 44.3 | 33.3 | 39.2 | > 100 | > 100 | 35.3 | > 100 | 37 | > 100 | > 100 |
| COC(=O)[C@H]1[C@H](OC(=O)[C@@H](OC)c2ccccc2)ON2CC[C@@H](OC(=O)c3ccccc3)[C@H]12 | > 100 | 25.6 | > 100 | > 100 | > 100 | > 100 | > 100 | 22 | > 100 | > 100 | > 100 | > 100 | > 100 | > 100 |  | > 100 | > 100 | > 100 |
| COc1ccc2c(c1)CC[C@@H]1C2CC[C@]2(C)C(=O)N(C)C(=O)CC12 (stereo not given in full) | > 100 | > 100 | > 100 | > 100 | > 100 | > 100 | > 100 | > 100 | > 100 | > 100 | > 100 | > 100 | > 100 | > 100 | > 100 |  | > 100 | > 100 |
| COc1cc(O)c2c(=O)cc(C3(OC(C)=O)C=CC(OC4OC(CO)C(O)C(O)C4O)C=C3)oc2c1 (stereo not given) | > 100 | > 100 | > 100 | > 100 | > 100 | > 100 | > 100 | > 100 | > 100 | > 100 | > 100 | > 100 | > 100 | > 100 | > 100 | > 100 | > 100 |  |
| O=C(N/N=C1\CCc2ccccc21)N/N=C1\CCc2ccccc21 | > 100 | > 100 | > 100 | > 100 | > 100 | > 100 | > 100 | > 100 | > 100 | > 100 | > 100 | > 100 | 29.4 | > 100 | > 100 | > 100 |  | > 100 |
| CCC1c2[nH]c3ccccc3c2C[C@H]2C(=O)NC(Cc3ccccc3)C(=O)N12 (stereo not given in full) | 52.6 | > 100 | 56.9 | 47.8 | 39 | 98.8 | > 100 | > 100 | 53.8 | 53.6 |  | > 100 | 46.2 | 62.1 | > 100 | 41.4 | > 100 | 66.3 |
| COC(=O)c1c(OC(C)=O)ccc2c1c1c(n2Cc2ccccc2)C(=O)c2ccccc2C1=O | 32.3 | > 100 | > 100 | 57.2 | 30.5 | 51.2 | 87.3 | > 100 | 64.5 | 37.8 | 68.6 | 95.4 | 36.8 | 30.3 |  | 36.2 | 74.2 | 78.1 |
| CN(N=O)C(N)=NC(=O)c1ccccc1 | > 100 | > 100 | > 100 |  | > 100 | > 100 | > 100 | > 100 | > 100 | > 100 | > 100 | > 100 | > 100 |  | > 100 | > 100 | > 100 | > 100 |
| N#Cc1c(-c2ccccc2)cc(Nc2ccc(F)cc2)n2c1nc1ccccc12 | 6.43 | 10.6 | > 100 | > 100 | 2.97 | > 100 | > 100 | 5.97 | > 100 | > 31.4 |  | > 54 | 65.2 | > 100 | > 100 | 4.35 | > 100 | > 62.1 |
| COC(=O)[C@@H](COC(=O)/C=C/c1ccc(OC(C)=O)c(OC(C)=O)c1)NC(=O)/C=C/c1ccc(OC(C)=O)c(OC(C)=O)c1 | 88 | > 100 | > 100 | > 100 | 35.3 | 48.1 | > 100 | > 100 | > 100 | > 100 | > 100 |  | 82.4 | 76.4 | > 100 | 55.4 | 57.8 | > 100 |
| COc1ccc(-n2c(-c3ccccc3)cc(-c3cccs3)c2-c2cccs2)cc1 | > 100 | > 100 | > 100 |  | > 100 | > 100 |  | > 100 | > 100 | > 100 | 32.7 | > 100 | > 100 | > 100 | > 100 |  | > 100 | > 100 |
| O=C1C2=Cc3ccccc3CCN2c2ccc([N+](=O)[O-])cc21 | > 100 | > 100 | > 100 | > 100 | > 100 | > 100 | > 100 | > 100 | > 100 | > 100 | > 100 | > 100 | > 100 | > 100 | > 100 |  | > 100 | > 100 |
| COC(=O)C1CCCCCCCCCCC12SCCCS2 (stereo not given) | 91.5 | 40.2 | 45 |  | 37.4 | 96.3 | 56.7 | > 100 | 34.9 | 36.4 | 51.1 | 41.6 | 45.2 | 61 | 81.9 | 41.9 | 38.7 | 56.5 |
| COC(=O)C(CCCCNC(=O)OCc1ccccc1)NC(=O)C(CCC(=O)OCc1ccccc1)NC(=O)OC(C)(C)C (stereo not given) (Boc-Glu(OBn)-Lys(Cbz)-OMe; configuration not given here) | > 100 | > 100 | > 100 | > 100 | > 100 | > 100 | > 100 | > 100 | > 100 | > 100 |  | > 100 | > 100 |  | > 100 |  | > 100 | > 100 |
| Cc1ccc(NC(=O)c2cc(S(=O)(=O)N3CCNNC3=O)c(S)cc2Cl)cc1 |  | > 100 | > 100 | > 100 | > 100 | > 100 | > 100 | > 100 | > 100 | 80.6 | > 100 | > 100 | > 100 | > 100 | > 100 | > 100 | > 100 | > 100 |
| CC(=O)/C(=C\n1c(=S)[nH]c2ccc([N+](=O)[O-])cc21)C(=O)Nc1ccccc1C | > 100 | > 100 | > 100 | > 100 | > 100 | > 100 | > 100 | > 100 | > 100 | > 100 | > 100 |  | > 100 | > 100 | > 100 | > 100 | > 100 |  |
| COC(=O)/C=C(\S/C(=C(/c1ccccc1)n1cc(C(=O)OC)c(C(=O)OC)n1)c1ccccc1)C(=O)OC | 18.6 | 10.6 | 12.4 | 12.6 | 4.09 | 6.66 | 31.8 | 22.9 | 32.6 | 31.4 | 31.3 | 9.22 | 44.6 |  | 16.9 | 35.8 | 29 | 32.8 |
| NC1=NC(=O)[C@H](CSCc2ccccc2)N1C(=O)OCc1ccccc1 | > 100 | > 100 | > 100 | > 100 | > 100 | > 100 | > 100 | > 100 | > 100 | > 100 |  | > 100 | > 100 | > 100 | > 100 | > 100 | > 100 | > 100 |
| COC(=O)C(NC(=O)C12CCC(C)(C(=O)O1)C2(C)C)c1cc(C(C)(C)C)c(O)c(C(C)(C)C)c1 (stereo not given) | > 100 | > 100 | > 100 | 32.1 | > 100 | > 100 | > 100 | > 100 | > 100 | > 100 | > 100 | > 100 | > 100 |  | > 100 | > 100 | > 100 | > 100 |
| O=C1C(c2c(O)n(-c3ccccc3)c3ccccc23)=Nc2ccccc21 | > 100 | 79.5 | > 100 |  | 66.3 | > 100 | > 100 | 37 | > 100 | 41.6 | > 100 | 53.6 | 81.5 | 75.5 | > 100 | 97.3 | > 100 | > 100 |
| Nc1nc(SCC(=O)c2ccccc2)nc2nc3c(c(-c4ccccc4)c12)CCCC3 | > 100 | > 100 | > 100 | > 100 |  | > 100 | > 100 | > 100 | > 100 | 70.8 | > 100 | > 100 | > 100 | > 100 |  | > 100 | 66.4 | 61.5 |
| CC(=O)Nc1ccccc1S(=O)(=O)c1c(-c2c(C)c(Cl)c(C)c(Cl)c2C)noc1C | > 100 | > 100 | > 100 |  | > 100 | 79.3 | > 100 | > 100 | 43.2 | > 100 | 71.2 | 73.7 | 88 | > 100 | > 100 | > 100 | 35.6 | > 100 |
| Cc1oc2nc(N(C)C)n3c(C)nnc3c2c1C | > 100 | > 100 | > 100 |  | > 100 | > 100 | > 100 | > 100 | > 100 | > 100 | > 100 | > 100 | > 100 | > 100 | > 100 |  | > 100 | > 100 |
| O=C1Nc2ccccc2/C1=C\c1c(Cl)[nH]c2ccccc12 | 0.598 | 13.1 | 12.6 | 0.728 | 1.23 | 7.77 | 7.49 | 10.6 | 0.918 | 3.55 | 3.44 | 6.65 | 14.3 | 1.68 | 5.45 | 6.67 |  | 7.72 |
| CCCN=C1S/C(=C/c2ccc(OC)c(OC)c2)C(=O)N1c1ccccc1 | > 100 | > 100 | > 100 | > 100 | > 100 | > 100 | > 100 | > 100 | > 100 |  | > 100 | 55.2 | 92.6 | > 100 | > 100 | 85.8 | 80.6 | > 100 |
